Series [1] relates to Lactobacillus acidophilus LA-1. Description: Growth of Lactobacillus acidophilus LA-1 in broth, plated on MRS agar (Examples 1 and 4). Type of series: cell-based. The method, then:
• I) Lactobacillus acidophilus LA-1 was inoculated at one (1) million CFU/ml into 500 ml of sterile broth medium conta Ming 2% casein, 2% corn starch, 0.1% calcium carbonate, 0.1% magnesium carbonate, and 0.05% yeast extract (Difco); a medium in which it is difficult to achieve significant Lactobacillus growth but which contains typical nutrients found in human diets. The inoculated broth (contained in 1 L Erlenmeyer flasks) was incubated at 37 C for 24 hours and then plated on MRS auar to determine CFU/ml. Result (average of triplicate samples): 12 million CFU/ml. • II) The test in (I) was repeated where the medium also contained 0.1% Tween-80. Result: 14 million CFU/ml. • III) The test in (I) was repeated where the medium was pre-treated with digestive enzymes for 24 hours prior to sterilization at 121 C for 20 minutes at 15 psi. The pre-treatment involved adding 250 mg of a lactogenic enzyme mixture containing papain (10,000 TU), bromelain (50 GDU), alpha-amylase (1,000 SKB) and glucoamylase (2.5 AG). Result: 87 million CFU/ml • IV) The test in (III) was repeated where 0.1% Tween-80 (as DP35) was added during the enzyme pre-treatment procedure. […]

For series [2], the system named is Bifidobacterium bifidum BB-12. The experiment in a line: Growth of Bifidobacterium bifidum BB-12 in broth (Example 6). Type of series: cell-based. Conditions: untreated Test I 11 million CFU/ml.
Series [3] concerns Lactobacillus rhamnosus HN001. The experiment in a line: Growth of Lactobacillus rhamnosus HN001 in broth, plated on MRS agar (Example 2). Type of series: cell-based. The settings on record: procedures of Example 1, untreated Test I 6 million CFU/ml. The method, then: • I) Lactobacillus acidophilus LA-1 was inoculated at one (1) million CFU/ml into 500 ml of sterile broth medium conta Ming 2% casein, 2% corn starch, 0.1% calcium carbonate, 0.1% magnesium carbonate, and 0.05% yeast extract (Difco); a medium in which it is difficult to achieve significant Lactobacillus growth but which contains typical nutrients found in human diets. The inoculated broth (contained in 1 L Erlenmeyer flasks) was incubated at 37 C for 24 hours and then plated on MRS auar to determine CFU/ml. Result (average of triplicate samples): 12 million CFU/ml. • II) The test in (I) was repeated where the medium also contained 0.1% Tween-80. Result: 14 million CFU/ml. • III) The test in (I) was repeated where the medium was pre-treated with digestive enzymes for 24 hours prior to sterilization at 121 C for 20 minutes at 15 psi. The pre-treatment involved adding 250 mg of a lactogenic enzyme mixture containing papain (10,000 TU), bromelain (50 GDU), alpha-amylase (1,000 SKB) and glucoamylase (2.5 AG). Result: 87 million CFU/ml • IV) The test in (III) was repeated where 0.1% Tween-80 (as DP35) was added during the enzyme pre-treatment procedure.
• The procedures of Example 1 were repeated with Lactobacillus rhamnosus HN001 substituted for Lactobacillus acidophilus LA-1. The results are as follows: Test I): 6 million CFU/ml. Test II): 7.5 million CFU/ml. Test III): 62 million CFU/ml.

For series [4], the system named is Lactobacillus paracasei F-19. The experiment in a line: Growth of Lactobacillus paracasei F-19 in broth, plated on MRS agar (Example 3). Type of series: cell-based. Conditions: procedures of Example 1, untreated Test I 14 million CFU/ml.
The conditions of series [5]: hydrophile-lipophile balance, designated from 1 to 20; cited from earlier work.
Series [6] has as its system Bifidobacterium lactis BL04. Description: Anaerobic growth of Bifidobacterium lactis BL04 in broth, plated on MRS agar plus L-cysteine HCl (Example 5). Conditions: inoculum 2 million CFU/ml, casein/rye/asparagus/barley broth, anaerobic 37 C, 24 hours, 0.025% Tween-80, 250 mg enzyme mixture, 24 h pre-treatment, untreated Test I 8 million CFU/ml. Type of series: cell-based. As for the experimental part: • I) Bifidobacterium lactis BL04 was inoculated at two (2) million CFU/ml into 500 ml of sterile broth medium containing 2% casein, 1% rye flour, 1% asparagus powder (ground freeze-dried asparagus), 1% barley flour, 0.1% calcium carbonate, 0.1% magnesium carbonate, and 0.05% yeast extract (Difco); a medium in which it is generally difficult to achieve significant Bifidobacteria growth but contains typical nutrients fbund in human diets. The inoculated broth (contained in 1 L Erlenmeyer flasks) was incubated anaerobically at 37 C for 24 hours and then plated on MRS agar plus L-cysteine HCl, to determine CFU/ml (plates were incubated anaerobically), Result (average of triplicate samples): 8 million CFU/ml. • II) The test in I) was repeated where the medium also contained 0.025% Tween-80. Result: 3 million CFU/ml. • III) The test in I) was repeated where the medium was pre-treated with digestive enzymes for 24 hours prior to sterilization at 121 C for 20 minutes at 15 psi. The pre-treatment involved adding 250 mg of a bifidogenic enzyme mixture containing cellulase-TL (1,000 CU), hemicellulase (1,000 HCU), beta-glucanase (50 BGU), papain (10,000 TU) and bromelain (50 GDU). Result 74 million CFU/ml. • IV) The test in III) was repeated where 0.025% Tween-80 was added during the enzyme pre-treatment procedure.

We go through two molecules from patent US8722035B2, “Formulations including digestive enzymes, polysorbate-based surfactants and probiotics” (Master Supplements, Inc., priority 2007, dated 2014).

As for `CCCCCCCC/C=C\CCCCCCCC(=O)OCCOCC(OCCO)C1OCC(OCCO)C1OCCO` (stereo not shown) [Tween-80, polyoxyethylene sorbitan monooleate], in series [1] (Example 1, inoculum 1 million CFU/ml, casein/corn starch broth, 37 C, 24 hours, 0.1% Tween-80, 250 mg enzyme mixture, 24 h pre-treatment, untreated Test I 12 million CFU/ml), the “viable count of L. acidophilus LA-1 after incubation” value is listed as 14 million CFU/ml. Also, the “viable count of Bifidobacterium bifidum BB-12 after incubation” value in series [2] amounted to 5 million CFU/ml. Moreover, the “viable count of L. rhamnosus HN001 after incubation” value in series [3] was 7.5 million CFU/ml. In addition, in series [4], the “viable count of L. paracasei F-19 after incubation” value was 19 million CFU/ml. Also, in series [5], the HLB was 15.0. For the same molecule, in series [6], the “viable count of Bifidobacterium lactis BL04 after incubation” value came out at 3 million CFU/ml.
Regarding “polyoxyethylene sorbitan monostearate [Tween-60]”, the “viable count of L. acidophilus LA-1 after incubation” value in series [1] (Example 4, procedures of Example 1 with different enzyme mixture and Tween-60 in place of Tween-80, untreated Test I 10 million CFU/ml) was found to be 9 million CFU/ml.
